Reference: US20090169490A1, “COMPOSITION AND METHOD FOR WEIGHT LOSS” (Guangzhou Konzern Pharmaceutical Co., Ltd, priority 2007, published 2009)

How the values were obtained:
[1] = tested on: Diet-Induced Obesity Rat Model; assay: Weight loss experiments in diet-induced obesity rat model; type: in vivo; conditions: for difference to control group E (weight loss effect): SPSS12.0 analysis, p<0.01, versus control group E on normal feed; for average weight variation (g) after / average weight variation (g) before: obese male rats; for average weight variation (g) before: n=10 per group
From the text: Male weaned rats (each weighs 50 g) divided into 5 groups with each group 10 rats.
The rats are orally administrated L-carnitine tartrate (Group A), L-hydroxy citric acid (Group B), L-carnitine tartrate and L-hydroxy citric acid (Group C), L-carnitine tartrate and L-hydroxy citric acid and asiaticosides (Group D), respectively. For comparison, a control group E is also set herewith. The oral administration dosage is 5 times that for human (kg/day). The rats are fed with feed comprising one of the active components set forth above for continuous 30 days.
Feed preparation: the feed comprises (a) basic feed consisting of 20 wt % of barley meal, 10 wt % of dehydrated vegetables, 20 wt % of pulse flour, 1 wt % of yeast, 5 wt % of bone dust, 16 wt % of cornmeal, 16 wt % of wheat skin, 10 wt % of fish meal and 2 wt % of salt, and (b) nutritive feed selected from the group consisting of powdered milk, lard, egg and soybean sprout. 10 g of powdered milk, 10 g of lard, one egg and 250 g of soybean sprout are added per 100 g of basic feed.
In the first and second week, each rat is fed 13 g of feed per day, with an increase in the amount of the feed of 2 g every week until the sixth week ([…]). The rats are fed twice a day. After the rats are fed with the high-fat, high-nutrition feed above for 45 days, the weight of the rat fed with such feed is nearly two times that of the rat in the control group fed with normal feed (the difference may be more than 100 g).
After the establishment of the rat model, rats in different groups are orally administrated L-carnitine tartrate (Group A), L-hydroxy citric acid (Group B), L-carnitine tartrate and L-hydroxy citric acid (Group C), L-carnitine tartrate and L-hydroxy citric acid and asiaticosides (Group D). The components are blended in the feed. No additional component is added to the normal feed fed the control group.
The experiment data is analyzed by software SPSS12.0 edition, and the result are shown as below: […]

[2] = cited from earlier work
[3] = cited from earlier work; remark: listed apart in the source
[4] = after minus before, 30 days oral administration in feed, dosage 5 times that for human
[5] = fat pad around testicle and kidney, after 30 days oral administration in feed, dosage 5 times that for human
[6] = fat pad around testicle and kidney, after minus before, 30 days oral administration in feed
[7] = fat pad around testicle and kidney, before the 30 days of oral administration in feed (baseline)
[8] = after 30 days oral administration in feed, dosage 5 times that for human
[9] = before the 30 days of oral administration in feed (baseline)

SMILES | difference to control group E (weight loss effect) [1] | average weight variation (g) variation [1, 4] [g] | average fat pad weight [1, 5] [g] | average fat pad weight [1, 6] [g] | average fat pad weight [1, 7] [g] | average weight variation (g) after [1, 8] [g] | average weight variation (g) before [1, 9] [g] | average percentage body fat variation (g) after [1, 5] [g] | average percentage body fat variation (g) variation [1, 6] [g] | average percentage body fat variation (g) before [1, 7] [g] | in vivo half-life [2] [h] | solubility in water [3]
C[N+](C)(C)C[C@H](O)CC(=O)[O-].O=C(O)C(O)C(O)C(=O)O [Group A, L-carnitine tartrate] | significant | -5 | 3.93 | -2.3 | 6.23 | 98.28 | 103.28 |  |  |  |  | 
O=C(O)CC(O)(C(=O)O)C(O)C(=O)O [Group B, L-hydroxy citric acid] | significant | -5.8 |  |  |  | 97.32 | 103.12 | 3.81 | -2.4 | 6.21 |  | 
C[N+](C)(C)C[C@H](O)CC(=O)[O-] [L-carnitine] |  |  |  |  |  |  |  |  |  |  | 8.4 | easy to dissolve in water
